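Dose response: 5 concentrations. Exposure: 48 h. Format: 96-well plates. Endpoint: linear interpolation; highest concentration if not reached. GI50: concentration for 50% inhibition of growth.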 Active and inactive are the calls of the source. Cut-off read from the data, not from the text of the source: active = GI50 up to about 1.1 µM and inactive = higher.
Key:
Experiment in all cases: NCI anticancer screen, dose series, 48 h
786-0 = tested on: 786-0
A549 = tested on: A549
CAKI-1 = tested on: CAKI-1
HCT-116 = tested on: HCT-116
IGROV-1 = tested on: IGROV-1
M14 = tested on: M14
NCI-H226 = tested on: NCI-H226
OVCAR-4 = tested on: OVCAR-4
RPMI-8226 = tested on: RPMI-8226
RXF 393 = tested on: RXF 393
SK-MEL-2 = tested on: SK-MEL-2
SW-620 = tested on: SW-620
TK-10 = tested on: TK-10
UACC-62 = tested on: UACC-62
UO-31 = tested on: UO-31
SNB-19 = tested on: SNB-19
HOP-92 = tested on: HOP-92

Measured: GI50

O=C1CC(c2c(-c3ccccc3)[nH]c3ccccc23)C(=O)N1c1ccccc1 (centres undefined)
inactive: 786-0 > 100 µM | A549 41.8 µM | CAKI-1 59.4 µM | HCT-116 41.9 µM | IGROV-1 > 100 µM | M14 > 100 µM | NCI-H226 > 100 µM | OVCAR-4 68.9 µM | RPMI-8226 37.6 µM | RXF 393 27.4 µM | SK-MEL-2 > 100 µM | SW-620 > 100 µM | TK-10 > 100 µM | UACC-62 54.2 µM | UO-31 25.4 µM

Cc1ccc(SSCCCCS(=O)O)cc1
inactive: 786-0 32 µM | A549 18.5 µM | CAKI-1 18.9 µM | HCT-116 20.7 µM | IGROV-1 2.91 µM | M14 16.4 µM | OVCAR-4 15.8 µM | RXF 393 12.7 µM | SK-MEL-2 25.1 µM | SNB-19 34.7 µM | SW-620 17.5 µM | TK-10 19.9 µM | UACC-62 15.3 µM | UO-31 10.6 µM

COc1ccc2c(c1OC)C(C=C(c1ccccc1)c1ccccc1)CN(C)C2 (centres undefined)
inactive: 786-0 16.7 µM | A549 30 µM | CAKI-1 14.2 µM | HCT-116 8.39 µM | HOP-92 14.2 µM | IGROV-1 14.8 µM | M14 14.5 µM | NCI-H226 22.6 µM | OVCAR-4 41.4 µM | RPMI-8226 18.2 µM | SNB-19 29.9 µM | SW-620 13.4 µM | TK-10 22 µM | UACC-62 17.3 µM | UO-31 20 µM

O=C1c2c(c3c4ccccc4n4c3c3c2c2ccccc2n3C/C=C\C4)C(=O)N1Cc1ccccc1
inactive: 786-0 > 100 µM | A549 > 100 µM | HCT-116 > 100 µM | IGROV-1 > 100 µM | M14 > 100 µM | NCI-H226 > 100 µM | RPMI-8226 > 100 µM | RXF 393 > 100 µM | SNB-19 > 100 µM | SW-620 > 100 µM | TK-10 > 100 µM | UACC-62 > 100 µM | UO-31 > 100 µM

CCOC(=O)C1=C(C)N2CCOC2(C)C(C(=O)OC)C1c1cccc(Cl)c1 (centres undefined)
inactive: 786-0 > 100 µM | A549 > 100 µM | CAKI-1 > 100 µM | HCT-116 > 100 µM | HOP-92 31.6 µM | IGROV-1 > 100 µM | M14 > 100 µM | RPMI-8226 > 100 µM | SK-MEL-2 > 100 µM | SNB-19 > 100 µM | SW-620 > 100 µM | TK-10 > 100 µM | UACC-62 88.7 µM | UO-31 > 100 µM

O=C1C2C3C=C4c5ccccc5N(c5ccccc5)C4(C2C(=O)N1c1ccccc1)C1C(=O)N(c2ccccc2)C(=O)C31 (centres undefined)
inactive: 786-0 > 100 µM | A549 > 100 µM | CAKI-1 > 100 µM | HCT-116 > 100 µM | HOP-92 2.4 µM | IGROV-1 > 10 µM | M14 > 100 µM | SK-MEL-2 > 100 µM | SNB-19 > 100 µM | SW-620 > 100 µM | TK-10 > 100 µM | UACC-62 3.61 µM | UO-31 > 100 µM

CCOC(=O)/C(C#N)=C(O)/C(=C/c1ccccc1Cl)NC(=O)c1ccccc1
inactive: 786-0 > 100 µM | A549 > 100 µM | CAKI-1 > 100 µM | HCT-116 30.3 µM | HOP-92 > 100 µM | IGROV-1 > 100 µM | M14 > 100 µM | NCI-H226 > 100 µM | OVCAR-4 > 100 µM | RPMI-8226 26.6 µM | SNB-19 > 100 µM | SW-620 18.8 µM | TK-10 > 100 µM | UACC-62 > 100 µM | UO-31 > 100 µM
